Measured values taken from PMC12567096, “An Efficacy- and In Vivo Exposure-Oriented Integrated Study to Investigate the Effective Components of Qishen Granule” (Pharmaceuticals, 2025).

Experiments:
[1] = Concentrations of 24 analytes in QSG treated plasma (Table S5); details: for Concentration / Exposure level in vivo (in words): QSG treated plasma; for Concentration: n = 5; for Exposure level in vivo (in words): Table S5; for concentration at 0.5 h / concentration at 1 h / concentration at 0.08 h / concentration at 0.17 h / concentration at 2 h / concentration at 4 h / concentration at 8 h / concentration at 12 h: Sprague Dawley, rat, 7 g/kg
[2] = system: H9c2 cells; assay: Cytotoxicity on H9c2 cells (CCK-8); assay type: cell-based, rat; details: H9c2 cells, n=3; for inhibition at 25 µM / inhibition at 50 µM / inhibition at 100 µM: Rattus norvegicus, read-out: Inhibition rate
Experimental: (§1) Rat myocardial H9c2 cells (purchased from China Infrastructure of Cell Line Resources, Institute of Basic Medical Sciences, Chinese Academy of Medical Sciences) were cultured in DMEM supplemented with 10% fetal bovine serum (FBS), Penicillin (100 U/mL), and Streptomycin (100 μg/mL) at 37 °C under a humidified atmosphere of 5% CO2 and 95% air. For OGD/R treatment, H9c2 cells were cultured in glucose-free DMEM under hypoxic conditions (95%N2 + 5%CO2) for 4 h at 37 °C followed by complete medium under normal conditions with air (95%) and CO2 (5%) for 2 h. A control group was maintained under normal culture conditions (with glucose-containing DMEM and 5% CO2) without undergoing OGD/R treatment. CCK8 was used to assess cell viability. After treatment, H9c2 cells were seeded in 96-well plates, with each well supplemented with 10 μL of CCK-8 solution and then incubated for 1 h. Finally, the absorbance at 450 nm was detected by a microplate reader (Model […] 200 PRO, TECAN, Grodig, Austria).
When evaluating the cytotoxicities of the absorbed compounds, the H9c2 cells were seeded in 96-well plates at a density of 1 × 10^4 cells/well; when cells reached 80% confluence, […] Afterward, the protective effects were verified by assessing the cell viability when treating with different concentrations (1, 10, 25, 50, and 100 μM) of the analytes prior to OGD/R treatment.

[3] = system: OGD/R-induced H9c2 cells; assay: Protective effect on OGD/R-induced H9c2 cells (CCK-8 cell viability); assay type: cell-based, rat; details: 1, 10, 25, 50 and 100 μM prior to OGD/R, vs model group
Experimental: as §1
When evaluating the cytotoxicities of the absorbed compounds, the H9c2 cells were seeded in 96-well plates at a density of 1 × 10^4 cells/well; when cells reached 80% confluence, they were treated with 25 and 50 μM of the 24 analytes to screen the non-toxic concentration ranges. Afterward, the protective effects were verified by assessing the cell viability when treating with different concentrations (1, 10, 25, 50, and 100 μM) of the analytes prior to OGD/R treatment.

[4] = Pharmacokinetic study in rats after oral administration of QSG
Experimental: Ion source parameters were set as follows: temperatures of drying gas and sheath gas were 300 °C and 300 °C, flow rates of drying gas and sheath gas were 7 L/min and 11 L/min, the nebulizer was set at 35 psig, capillary voltage was 3500 V (−), and nozzle voltage was 2000 V (−). […] Chromatographic separations were conducted on a ZORBAX Eclipse Plus C18 column (3.0 × 50 mm, 1.8 μm, Agilent Technologies, California, USA). The mobile phase was composed of 0.1% aqueous FA (A, (v/v)) and 0.1% formic acid methanol (B), the flow rate was set at 0.5 mL/min, and the column oven was maintained at 40 °C.
Protein precipitation was carried out for each time point for plasma samples, calibration samples, or QC samples by introducing four volumes of acetonitrile containing 400 ng/mL of icariin. Then, 10 μL 10% aqueous ascorbic acid (v/v) was spiked into each sample to prevent the oxidation of phenolic compounds. […] An aliquot (450 μL) of the supernatant was transferred and dried under nitrogen vacuum.
The pharmacokinetic parameters were calculated by DAS software (version 2.0) for a non-compartmental analysis.

[5] = rat plasma, single oral 7 g/kg QSG, n = 6

| Compound | Concentration ([1]; 0.5 h) [ng/mL] | Concentration ([1]; 1 h) [ng/mL] | Inhibition rate ([2]; 25 μM) [%] | Inhibition rate ([2]; 50 μM) [%] | Inhibition rate ([2]; 100 μM) [%] | H9c2 cell survival after OGD/R (in words) [3] | inhibition at 25 µM ([2]; 25 μM) [%] | inhibition at 50 µM ([2]; 50 μM) [%] | inhibition at 100 µM ([2]; 100 μM) [%] | also measured |
| --- | --- | --- | --- | --- | --- | --- | --- | --- | --- | --- |
| COC[C@]12O[C@H]1[C@@H](O)[C@@H]1C=CO[C@@H](O[C@@H]3O[C@H](CO)[C@@H](O)[C@H](O)[C@H]3O)[C@@H]12 [10-methoxyl catalpol] | 2.315 ± 0.283 | 1.293 ± 0.135 | 2.8 ± 0.9 | 5.1 ± 4.3 | 9.1 ± 4.2 | – | – | – | – | – |
| COC(=O)C1=CO[C@@H](O[C@@H]2O[C@H](CO)[C@@H](O)[C@H](O)[C@H]2O)[C@@H]2[C@H](C)O[C@@H](O)C[C@H]12 [Morroniside] | – | – | – | – | – | significantly improve H9c2 cell survival rates | -10.6 ± 7.6 | 2.1 ± 5.6 | 8.1 ± 3.9 | Exposure level in vivo (in words) [1]: relatively lower exposure levels; concentration at 0.5 h ([1]; plasma, oral): 3.05 ± 0.802 ng/mL; concentration at 1 h ([1]; plasma, oral): 2.4 ± 0.829 ng/mL |
| COc1ccc(CCO[C@@H]2O[C@H](CO[C@@H]3OC[C@H](O)[C@H](O)[C@H]3O)[C@@H](OC(=O)/C=C/c3ccc(O)c(OC)c3)[C@H](O[C@@H]3O[C@@H](C)[C@H](O)[C@@H](O)[C@H]3O)[C@H]2O)cc1O [Angoroside C] | 4.290 ± 1.023 | 3.109 ± 0.501 | 3.6 ± 4.5 | 12.7 ± 5.1 | 18.7 ± 1.1 | significantly improve H9c2 cell survival rates | – | – | – | Concentration ([1]; 2 h): 1.029 ± 0.203 ng/mL; Exposure level in vivo (in words) [1]: relatively lower exposure levels |
| C=C[C@H]1[C@H](O[C@@H]2O[C@H](CO)[C@@H](O)[C@H](O)[C@H]2O)OC=C(C(=O)O)[C@H]1CC(=O)O [Secologanoside] | 4.124 ± 1.235 | 2.135 ± 1.024 | -15.6 ± 7.9 | 11.0 ± 7.7 | 19.1 ± 3.7 | – | – | – | – | Concentration ([1]; 2 h): 1.274 ± 0.246 ng/mL |
| O=C(/C=C/c1ccc(O[C@@H]2O[C@H](CO)[C@@H](O)[C@H](O)[C@H]2O)cc1)c1ccc(O)cc1O [Isoliquiritin] | – | – | – | – | – | – | -18.3 ± 3.6 | 8.5 ± 2.9 | 13.5 ± 2.3 | concentration at 0.08 h ([1]; in vivo): 0.332 ± 0.496 ng/mL; concentration at 0.17 h ([1]; in vivo): 1.24 ± 0.874 ng/mL; concentration at 0.5 h ([1]; in vivo): 2.54 ± 0.684 ng/mL; concentration at 1 h ([1]; in vivo): 1.31 ± 0.788 ng/mL; concentration at 2 h ([1]; in vivo): 0.456 ± 0.573 ng/mL; concentration at 4 h ([1]; in vivo): 0.075 ± 0.309 ng/mL; concentration at 8 h ([1]; in vivo): 0.078 ± 0.159 ng/mL; concentration at 12 h ([1]; in vivo): 0.158 ± 0.323 ng/mL |
| COc1ccc(-c2coc3cc(O[C@@H]4O[C@H](CO)[C@@H](O)[C@H](O)[C@H]4O)ccc3c2=O)cc1O [Calycosin-7-O-glucoside, Calycosin-7-O-D-glucoside] | 8.612 ± 0.681 | 3.192 ± 1.624 | -1.2 ± 3.5 | 7.8 ± 6.4 | 11.8 ± 6.1 | – | – | – | – | Concentration ([1]; 0.08 h): 1.161 ± 0.988 ng/mL; Concentration ([1]; 0.17 h): 2.081 ± 1.576 ng/mL; Concentration ([1]; 2 h): 3.096 ± 2.601 ng/mL; Concentration ([1]; 4 h): 1.198 ± 1.103 ng/mL; Concentration ([1]; 8 h): 1.241 ± 0.963 ng/mL; Concentration ([1]; 12 h): 0.536 ± 0.271 ng/mL |
| O=C1C[C@@H](c2ccc(O[C@@H]3O[C@H](CO)[C@@H](O)[C@H](O)[C@H]3O)cc2)Oc2cc(O)ccc21 [Liquiritin] | – | – | – | – | – | – | -7.4 ± 7.5 | 11.6 ± 0.6 | 17.6 ± 1.2 | concentration at 0.08 h ([1]; plasma, oral): 2.07 ± 1.32 ng/mL; concentration at 0.17 h ([1]; plasma, oral): 11.8 ± 10.9 ng/mL; concentration at 0.5 h ([1]; plasma, oral): 26.8 ± 4.42 ng/mL; concentration at 1 h ([1]; plasma, oral): 17.8 ± 5.29 ng/mL; concentration at 2 h ([1]; plasma, oral): 8.3 ± 2.48 ng/mL; concentration at 4 h ([1]; plasma, oral): 4.02 ± 3.3 ng/mL; concentration at 8 h ([1]; plasma, oral): 2.17 ± 0.609 ng/mL; concentration at 12 h ([1]; plasma, oral): 1.36 ± 2.74 ng/mL |
| COc1ccc(-c2coc3cc(O)ccc3c2=O)cc1O [Calycosin] | – | – | – | – | – | – | 6.8 ± 3.9 | 6.3 ± 8.3 | 9.3 ± 4.2 | concentration at 0.08 h ([1]; plasma, oral): 0.966 ± 0.737 ng/mL; concentration at 0.17 h ([1]; plasma, oral): 2.15 ± 0.363 ng/mL; concentration at 0.5 h ([1]; plasma, oral): 2.51 ± 0.672 ng/mL; concentration at 1 h ([1]; plasma, oral): 1.7 ± 0.563 ng/mL; concentration at 2 h ([1]; plasma, oral): 0.825 ± 0.375 ng/mL; concentration at 4 h ([1]; plasma, oral): 0.589 ± 0.46 ng/mL; concentration at 8 h ([1]; plasma, oral): 0.737 ± 0.203 ng/mL; concentration at 12 h ([1]; plasma, oral): 0.647 ± 0.195 ng/mL |
| O=C(/C=C/c1ccc(O)c(O)c1)O[C@@H]1C[C@@](O)(C(=O)O)C[C@@H](O)[C@@H]1O [Neochlorogenic acid] | – | – | -12.8 ± 1.3 | 3.8 ± 2.2 | 5.7 ± 2.3 | significantly improve H9c2 cell survival rates | – | – | – | AUC0→∞ ([4]; Table S12, rats, oral QSG): 1418 ng·h/mL; AUC0→t [4, 5]: 167.1 ± 68.93 ng·h/mL; Cmax [4, 5]: 68.12 ± 4.044 ng/mL; MRT [4, 5]: 6.104 ± 2.911 h; Tmax [4, 5]: 0.398 ± 0.093 h |
| COC(=O)C1=CO[C@@H](O[C@@H]2O[C@H](CO)[C@@H](O)[C@H](O)[C@H]2O)[C@@H]2[C@@H](C)[C@H](O)C[C@H]12 [7-epi-loganin] | – | – | – | – | – | significantly improve H9c2 cell survival rates | 2.8 ± 0.9 | 7.1 ± 4.3 | 10.3 ± 3.5 | Exposure level in vivo (in words) [1]: relatively lower exposure levels; concentration at 0.5 h ([1]; plasma, oral): 1.73 ± 0.49 ng/mL; concentration at 1 h ([1]; plasma, oral): 1.5 ± 0.298 ng/mL |
| COC[C@@]12CC[C@H](OC)[C@]34C(C([C@H](OC)[C@H]13)[C@]1(OC(C)=O)[C@H]3[C@@H](OC(=O)c5ccccc5)[C@](O)(C[C@H]34)[C@@H](OC)[C@@H]1O)N(C)C2 [Hypaconitine] | – | – | – | – | – | – | 13.7 ± 4.1 | 20.8 ± 3.2 | 32.8 ± 1.2 | concentration at 0.08 h ([1]; in vivo): 0.048 ± 0.019 ng/mL; concentration at 0.17 h ([1]; in vivo): 0.202 ± 0.096 ng/mL; concentration at 0.5 h ([1]; in vivo): 0.308 ± 0.041 ng/mL; concentration at 1 h ([1]; in vivo): 0.34 ± 0.066 ng/mL; concentration at 2 h ([1]; in vivo): 0.331 ± 0.081 ng/mL; concentration at 4 h ([1]; in vivo): 0.212 ± 0.084 ng/mL; concentration at 8 h ([1]; in vivo): 0.071 ± 0.049 ng/mL; concentration at 12 h ([1]; in vivo): 0.005 ± 0.013 ng/mL |
| C=C[C@H]1[C@H](O[C@@H]2O[C@H](CO)[C@@H](O)[C@H](O)[C@H]2O)OC=C(C(=O)OC)[C@H]1CC(=O)O [Secoxyloganin] | – | – | 3.5 ± 1.2 | 7.9 ± 3.3 | 9.9 ± 2.7 | – | – | – | – | – |
| Liquiritin apioside | – | – | -25.2 ± 3.5 | -16.2 ± 3.6 | -6.1 ± 2.5 | significantly improve H9c2 cell survival rates | – | – | – | – |
| COc1ccc(-c2coc3cc(O[C@@H]4O[C@H](CO)[C@@H](O)[C@H](O)[C@H]4O)ccc3c2=O)cc1 [Formononetin-7-O-glucoside, Formononetin-7-O-D-glucoside] | – | – | 0.8 ± 0.9 | 9.1 ± 4.3 | 11.1 ± 2.3 | – | – | – | – | – |
| O=C1C[C@@H](c2ccc(O)cc2)Oc2cc(O)ccc21 [Liquiritigenin] | 4.378 ± 0.959 | 3.255 ± 1.246 | -4.4 ± 2.2 | 2.3 ± 3.3 | 8.5 ± 3.6 | – | – | – | – | Concentration ([1]; 0.08 h): 1.163 ± 0.835 ng/mL; Concentration ([1]; 0.17 h): 3.082 ± 0.977 ng/mL; Concentration ([1]; 2 h): 2.336 ± 1.150 ng/mL; Concentration ([1]; 4 h): 2.064 ± 0.888 ng/mL; Concentration ([1]; 8 h): 2.239 ± 1.209 ng/mL; Concentration ([1]; 12 h): 2.987 ± 1.135 ng/mL |
